Test results taken from patent US8334110B2, “Detection of blood plasma amygdalin of dissipating blood stasis botanical” (Shanghai Sundise Chinese Medicine Technology Development …, priority 2007, dated 2012).

Experiment: UPLC/MS determination of blood plasma Amygdalin after administration of the body resistance-strengthening and blood stasis-dissipating botanical composition
Type: in vivo
Conditions: blood plasma of mammals after drenched with body resistance-strengthening and blood stasis-dissipating (Fuzheng Huayu, FZHY) botanical composition; UPLC-MS, FIG. 1 (plasma taken 0.5 hours after administration)
Source text: a. After the administration of the body resistance-strengthening and blood stasis-dissipating botanical composition to mammals, first add 2-5 mol/L phosphoric acid to the composition-containing mammalian blood plasma and mix to homogenize, the volumetric ratio of the blood plasma to phosphoric acid is 1:2-3, feed the same to a Waters Oasis HLB cartridge that has been activated by methanol and water, leach with water and 80-100% methanol and elute with 0.2-1% ammonia methanol, then dry through evaporation and enrich the eluent at 25-30° C., and re-dissolve the eluent with a mobile phase;
Chromatographic conditions: chromatographic column: Acquity UPLC BEH C18, 2.1×100 mm, mobile phase A: Water-Acetonitrile-Formic acid 95:5:0.1 v/v/v, mobile phase B: Acetomtrile-Formic acid 100:0.1 v/v; MS conditions: electrospray ionization (ESI) ion source, detection in the positive ion mode, and the mass scanning range m/z 150˜800.
The ESI ion source in said Step (2) employs detection in the positive ion mode; the desolvation gas flow rate is 440 L/h, the desolvation gas temperature is 300° C., the cone gas flow rate is 50 L/h, the ion source temperature is 100° C., the spray capillary voltage is 3800 V, the sampling cone voltage is 30 V, the extracting cone voltage is 2.00 V, and the lens voltage is 0.1 V. The mass scanning range is m/z 150˜800.
1. […]

N#C[C@H](O[C@@H]1O[C@H](CO[C@@H]2O[C@H](CO)[C@@H](O)[C@H](O)[C@H]2O)[C@@H](O)[C@H](O)[C@H]1O)c1ccccc1 [Amygdalin]
Detection of Amygdalin in blood plasma: can be detected
